PMC10796436, “Peptidyl nitroalkene inhibitors of main protease rationalized by computational and crystallographic investigations as antivirals against SARS-CoV-2” (Communications Chemistry, 2024)
“And” between values parts separate entries of the source, which are not always exact repeats. Equal entries are not always repeated.

Key:
SARS-CoV-2 M^pro [1] = target: T1, SARS-CoV-2 M^pro (Severe acute respiratory syndrome coronavirus 2, UniProt P0DTD1); assay: biochemical; details: M^pro from pMal-M^pro vector
SARS-CoV-2 M^pro [2] = target: T1, SARS-CoV-2 M^pro; assay: Mpro FRET inhibition, continuous fluorometric assay (Fluorolog-3), enzyme from pET21-M^pro vector; assay type: biochemical; details: read-out: Ki (μM)^b
SARS-CoV-2 = assay: microbe, parasite or virus in culture; assay type: cell-based; details: for virus titer Mean (%): mean of Exp.1-3
[3] = target: human matriptase (MT-SP1) (Homo sapiens, UniProt Q9Y5Y6); assay: Matriptase inhibition, fluorometric assay; assay type: biochemical; details: 20 μM
[4] = target: Zika Virus NS2B/NS3 (bZiPro) (Zika virus, UniProt A0A024B7W1); assay: Zika virus protease inhibition, fluorometric assay; assay type: biochemical; details: 20 μM
cathepsin L (CatL) = target: T2, cathepsin L (CatL) (Homo sapiens, UniProt P07711); assay: Cathepsin L inhibition, fluorometric assay; assay type: biochemical; details: read-out: Ki CatL
T2 construct: purchased Calbiochem (Merck Millipore)

M^pro = M^pro (Severe acute respiratory syndrome coronavirus 2, UniProt P0DTD1); assay: biochemical; assay type: binding
bovine trypsin = target: T3, bovine trypsin (Bos taurus, UniProt P00760); assay type: biochemical; details: 20 μM
T3 construct: purchased Sigma-Aldrich
T3 sequence (P00760 24-246): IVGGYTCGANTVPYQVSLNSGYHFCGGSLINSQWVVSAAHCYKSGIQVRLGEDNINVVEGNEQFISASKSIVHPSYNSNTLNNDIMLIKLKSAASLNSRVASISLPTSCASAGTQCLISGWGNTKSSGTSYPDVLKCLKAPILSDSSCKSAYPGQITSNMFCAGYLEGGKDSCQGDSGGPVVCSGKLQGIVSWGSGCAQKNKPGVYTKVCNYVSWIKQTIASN

T2 sequence (P07711 114-288 limits assumed): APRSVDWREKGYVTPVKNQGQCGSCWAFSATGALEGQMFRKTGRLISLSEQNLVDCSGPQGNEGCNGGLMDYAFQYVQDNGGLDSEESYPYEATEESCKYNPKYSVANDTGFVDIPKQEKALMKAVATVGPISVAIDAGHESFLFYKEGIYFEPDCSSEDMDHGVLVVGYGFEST
T2 sequence (P07711 292-333 limits assumed): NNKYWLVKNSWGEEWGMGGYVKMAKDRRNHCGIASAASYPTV
Chain of Zika Virus NS2B/NS3 (bZiPro) (A0A024B7W1 1425-1464): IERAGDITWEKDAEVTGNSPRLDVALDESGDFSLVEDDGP
Chain of Zika Virus NS2B/NS3 (bZiPro) (A0A024B7W1 1503-1680): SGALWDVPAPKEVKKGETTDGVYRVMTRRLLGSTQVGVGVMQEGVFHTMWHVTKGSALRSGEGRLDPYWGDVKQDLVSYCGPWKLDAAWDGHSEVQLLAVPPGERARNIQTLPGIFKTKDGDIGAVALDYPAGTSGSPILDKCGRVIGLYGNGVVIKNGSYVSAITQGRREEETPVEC
Chain of human matriptase (MT-SP1) (Q9Y5Y6 615-855 limits assumed, other chains not shown): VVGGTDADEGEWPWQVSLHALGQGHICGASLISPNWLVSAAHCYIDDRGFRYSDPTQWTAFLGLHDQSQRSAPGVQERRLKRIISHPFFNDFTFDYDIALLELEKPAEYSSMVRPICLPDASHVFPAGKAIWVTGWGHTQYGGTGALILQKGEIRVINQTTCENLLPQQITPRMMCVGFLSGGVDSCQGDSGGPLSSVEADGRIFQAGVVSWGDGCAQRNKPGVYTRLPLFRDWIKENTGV

COc1cccc2[nH]c(C(=O)N[C@@H](CC(C)C)C(=O)N[C@H](/C=C/[N+](=O)[O-])C[C@@H]3CCNC3=O)cc12 [FGA146]
Ki (SARS-CoV-2 M^pro [1]): 2.19 ± 0.18 µM | Ki (SARS-CoV-2 M^pro [2]): 0.96 ± 0.06 µM | EC50 (SARS-CoV-2; Huh-7-ACE2, 24h p.t., […]): 0.9 µM | virus titer Mean (%) (SARS-CoV-2; conc 0.1): 133.333% | virus titer Mean (%) (SARS-CoV-2; conc 0.5): 86.6667% | virus titer (%) of conc 0 (SARS-CoV-2; conc 0.5, single experiments): 100% and 60% | virus titer (pfu/ml) (SARS-CoV-2; conc 0.5, single experiments): 1000000 pfu/ml and 1200000 pfu/ml | virus titer Mean (%) (SARS-CoV-2; conc 1): 22.5% | virus titer Mean (%) (SARS-CoV-2; conc 5): 0.1667% | virus titer (%) of conc 0 (SARS-CoV-2; conc 5, single experiments): 0.4% and 0.04% and 0.06% | virus titer Mean (%) (SARS-CoV-2; conc 10): 0.1023% | virus titer (%) of conc 0 (SARS-CoV-2; conc 10, single experiments): 0.12% and 0.18% and 0.007% | virus titer Mean (%) (SARS-CoV-2; conc 50): 0.02533% | virus titer (%) of conc 0 (SARS-CoV-2; conc 50, single experiments): 0.06% and 0.014% and 0.002% | virus titer Mean (%) (SARS-CoV-2; conc 100): 0.02033% | virus titer (%) of conc 0 (SARS-CoV-2; conc 100, single experiments): 0.04% and 0.018% and 0.003% | MT-SP1 [3]: n.i. (no inhibition (<10%) was observed at a concentration of 20 μM) | bZiPro [4]: n.i. (no inhibition (<10%) was observed at a concentration of 20 μM) | Ki (cathepsin L (CatL)): 0.868 ± 0.06 µM | Tm of M^pro (M^pro): 45.0 ± 0.2 °C and 42.8 ± 0.1 °C | DTm (°C) (M^pro; 25 mM): -4.2 °C | Fraction unfolded (M^pro; 25 mM, 21.5 °C): -0.01003 | Fraction unfolded (M^pro; 25 mM, 22 °C): -0.02886 | Fraction unfolded (M^pro; 25 mM, 22.5 °C): -0.03599 | Fraction unfolded (M^pro; 25 mM, 23 °C): -0.01149 | Fraction unfolded (M^pro; 25 mM, 23.5 °C): 0.01389 | Fraction unfolded (M^pro; 25 mM, 24 °C): 0.08488 | Fraction unfolded (M^pro; 25 mM, 24.5 °C): 0.03781 | Fraction unfolded (M^pro; 25 mM, 25 °C): -0.07553 | Fraction unfolded (M^pro; 25 mM, 25.5 °C): 0.01064 | Fraction unfolded (M^pro; 25 mM, 26 °C): 0.08908 | Fraction unfolded (M^pro; 25 mM, 26.5 °C): 0.04267 | Fraction unfolded (M^pro; 25 mM, 27 °C): -0.01602 | Fraction unfolded (M^pro; 25 mM, 27.5 °C): 0.0059 | Fraction unfolded (M^pro; 25 mM, 28 °C): -0.0719 | Fraction unfolded (M^pro; 25 mM, 28.5 °C): 0.01153 | Fraction unfolded (M^pro; 25 mM, 29 °C): -0.09309 | Fraction unfolded (M^pro; 25 mM, 29.5 °C): -0.02786 | Fraction unfolded (M^pro; 25 mM, 30 °C): -0.01911 | Fraction unfolded (M^pro; 25 mM, 30.5 °C): 0.07168 | Fraction unfolded (M^pro; 25 mM, 31 °C): 0.0139 | Fraction unfolded (M^pro; 25 mM, 32 °C): -0.02402 | Fraction unfolded (M^pro; 25 mM, 32.5 °C): 0.02054 | Fraction unfolded (M^pro; 25 mM, 66.5 °C): 0.9674 | Fraction unfolded (M^pro; 25 mM, 67 °C): 1.009 | Fraction unfolded (M^pro; 25 mM, 67.5 °C): 1.012 | Fraction unfolded (M^pro; 25 mM, 68 °C): 1.038 | Fraction unfolded (M^pro; 25 mM, 68.5 °C): 1.026 | Fraction unfolded (M^pro; 25 mM, 69 °C): 1.004 | Fraction unfolded (M^pro; 25 mM, 69.5 °C): 1.031 | Fraction unfolded (M^pro; 25 mM, 70 °C): 1.005 | Fraction unfolded (M^pro; 25 mM, 70.5 °C): 0.9826 | Fraction unfolded (M^pro; 25 mM, 71 °C): 1.014 | Fraction unfolded (M^pro; 25 mM, 71.5 °C): 1.05 | Fraction unfolded (M^pro; 25 mM, 72 °C): 1.03 | Fraction unfolded (M^pro; 25 mM, 72.5 °C): 1.006 | Fraction unfolded (M^pro; 25 mM, 73 °C): 1.029 | Fraction unfolded (M^pro; 25 mM, 73.5 °C): 0.9779 | Fraction unfolded (M^pro; 25 mM, 74 °C): 1.013 | Fraction unfolded (M^pro; 25 mM, 74.5 °C): 1.064 | Fraction unfolded (M^pro; 25 mM, 75 °C): 1.029 | Fraction unfolded (M^pro; 25 mM, 75.5 °C): 1.031 | Fraction unfolded (M^pro; 25 mM, 76 °C): 1.031 | Fraction unfolded (M^pro; 25 mM, 76.5 °C): 0.9806 | Fraction unfolded (M^pro; 25 mM, 77 °C): 1.015 | Fraction unfolded (M^pro; 25 mM, 77.5 °C): 1.011 | Fraction unfolded (M^pro; 25 mM, 78 °C): 1.0092 | Fraction unfolded (M^pro; 25 mM, 78.5 °C): 1.012 | Fraction unfolded (M^pro; 25 mM, 79 °C): 1.059 | Fraction unfolded (M^pro; 25 mM, 79.5 °C): 0.9461 | Fraction unfolded (M^pro; 25 mM, 80 °C): 1.0063 | DTm (°C) (M^pro; 100 mM): -6.4 °C | Fraction unfolded (M^pro; 100 mM, 21.5 °C): -0.0719 | Fraction unfolded (M^pro; 100 mM, 22 °C): 0.01153 | Fraction unfolded (M^pro; 100 mM, 22.5 °C): -0.09309 | Fraction unfolded (M^pro; 100 mM, 23 °C): -0.02786 | Fraction unfolded (M^pro; 100 mM, 23.5 °C): -0.01911 | Fraction unfolded (M^pro; 100 mM, 24 °C): 0.07168 | Fraction unfolded (M^pro; 100 mM, 24.5 °C): 0.0139 | Fraction unfolded (M^pro; 100 mM, 25 °C): 0.01178 | Fraction unfolded (M^pro; 100 mM, 25.5 °C): -0.02402 | Fraction unfolded (M^pro; 100 mM, 26 °C): 0.02054 | Fraction unfolded (M^pro; 100 mM, 26.5 °C): 0.0786 | Fraction unfolded (M^pro; 100 mM, 27 °C): -0.05017 | Fraction unfolded (M^pro; 100 mM, 27.5 °C): -0.00904 | Fraction unfolded (M^pro; 100 mM, 28 °C): -0.01003 | Fraction unfolded (M^pro; 100 mM, 28.5 °C): -0.02886 | Fraction unfolded (M^pro; 100 mM, 29 °C): -0.03599 | Fraction unfolded (M^pro; 100 mM, 29.5 °C): -0.01149 | Fraction unfolded (M^pro; 100 mM, 30 °C): 0.01389 | Fraction unfolded (M^pro; 100 mM, 30.5 °C): 0.08488 | Fraction unfolded (M^pro; 100 mM, 31 °C): 0.03781 | Fraction unfolded (M^pro; 100 mM, 32 °C): 0.01064 | Fraction unfolded (M^pro; 100 mM, 32.5 °C): 0.08908 | Fraction unfolded (M^pro; 100 mM, 66.5 °C): 1.038 | Fraction unfolded (M^pro; 100 mM, 67 °C): 1.026 | Fraction unfolded (M^pro; 100 mM, 67.5 °C): 1.004 | Fraction unfolded (M^pro; 100 mM, 68 °C): 1.031 | Fraction unfolded (M^pro; 100 mM, 68.5 °C): 1.005 | Fraction unfolded (M^pro; 100 mM, 69 °C): 0.9826 | Fraction unfolded (M^pro; 100 mM, 69.5 °C): 1.014 | Fraction unfolded (M^pro; 100 mM, 70 °C): 1.04 | Fraction unfolded (M^pro; 100 mM, 70.5 °C): 0.9664 | Fraction unfolded (M^pro; 100 mM, 71 °C): 0.9851 | Fraction unfolded (M^pro; 100 mM, 71.5 °C): 0.9877 | Fraction unfolded (M^pro; 100 mM, 72 °C): 0.9881 | Fraction unfolded (M^pro; 100 mM, 72.5 °C): 1.095 | Fraction unfolded (M^pro; 100 mM, 73 °C): 0.9972 | Fraction unfolded (M^pro; 100 mM, 73.5 °C): 1.057 | Fraction unfolded (M^pro; 100 mM, 74 °C): 0.8905 | Fraction unfolded (M^pro; 100 mM, 74.5 °C): 1.0309 | Fraction unfolded (M^pro; 100 mM, 75 °C): 0.9492 | Fraction unfolded (M^pro; 100 mM, 75.5 °C): 0.9161 | Fraction unfolded (M^pro; 100 mM, 76 °C): 1.007 | Fraction unfolded (M^pro; 100 mM, 76.5 °C): 1.02 | Fraction unfolded (M^pro; 100 mM, 77 °C): 1.017 | Fraction unfolded (M^pro; 100 mM, 77.5 °C): 1.029 | Fraction unfolded (M^pro; 100 mM, 78 °C): 1.021 | Fraction unfolded (M^pro; 100 mM, 78.5 °C): 1.059 | Fraction unfolded (M^pro; 100 mM, 79 °C): 0.9805 | Fraction unfolded (M^pro; 100 mM, 79.5 °C): 0.9855 | Fraction unfolded (M^pro; 100 mM, 80 °C): 1.001 | relative activity compared to the DMSO control (bovine trypsin): 112.5±16.9%
